# Assay results taken from patent US8952157B2, “Apoptosis-inducing agents for the treatment of cancer and immune and autoimmune diseases” (AbbVie Inc., priority 2008, dated 2015).
# Target: GST-Bcl-2 (Homo sapiens (Human), UniProt P10415)
# Assay: Time Resolved-Fluorescence Resonance Energy Transfer (TR-FRET) Bcl-2 binding assay
# Conditions: not given
# Procedure: Determination of the utility of compounds having Formula (I) as binders to and inhibitors of anti-apoptotic Bcl-2 proteins was performed using the Time Resolved-Fluorescence Resonance Energy Transfer (TR-FRET) Assay. Tb-anti-GST antibody was purchased from Invitrogen (Catalog No. PV4216).
# (§1) Representative compounds were serially diluted in dimethyl sulfoxide (DMSO) starting at 50 μM (2× starting concentration; 10% DMSO) and 10 μL were transferred into a 384-well plate. The samples are then mixed on a shaker for 1 minute and incubated for an additional 3 hours at room temperature. For each assay, the probe/antibody and protein/probe/antibody were included on each assay plate as negative and positive controls, respectively. Fluorescence was measured on the Envision (Perkin Elmer) using a 340/35 nm excitation filter and 520/525 (F-Bak peptide) and 495/510 nm (Tb-labeled anti-Histidine antibody) emission filters.
# as §1, with “The” for “Representative compounds were serially diluted in dimethyl sulfoxide (DMSO) starting at 50 μM (2× starting concentration; 10% DMSO) and 10 μL were transferred into a 384-well plate. The”, “were” for “are”
# The inhibition constant (Ki) is the dissociation constant of an enzyme-inhibitor complex or a protein/small molecule complex, wherein the small molecule is inhibiting binding of one protein to another protein. So a large Ki value indicates a low binding affinity and a small Ki value indicates a high binding affinity.
# GST-Bcl-2, sequence (P10415 whole entry): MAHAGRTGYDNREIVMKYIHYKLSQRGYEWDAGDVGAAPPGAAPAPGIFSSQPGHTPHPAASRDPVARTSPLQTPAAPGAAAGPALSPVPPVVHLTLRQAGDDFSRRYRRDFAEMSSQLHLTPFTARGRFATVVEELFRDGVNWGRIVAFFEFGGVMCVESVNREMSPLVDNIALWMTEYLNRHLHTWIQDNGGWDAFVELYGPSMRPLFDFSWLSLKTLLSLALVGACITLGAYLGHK
row,SMILES,Ki
1,"CC1(C)CCC(CN2CCN(c3ccc(C(=O)NS(=O)(=O)c4ccc(N[C@H]5CC[C@H](N6CCOCC6)CC5)c([N+](=O)[O-])c4)c(Oc4cc5cc[nH]c5cc4Cl)c3)CC2)=C(c2ccc(Cl)cc2)C1 [Example 293, Trans-2-[(6-chloro-1H-indol-5-yl)oxy]-4-(4-{[2-(4-chlorophenyl)-4,4-dimethylcyclohex-1-en-1-yl]methyl}piperazin-1-yl)-N-({4-[(4-morpholin-4-ylcyclohexyl)amino]-3-nitrophenyl}sulfonyl)benzamide]",233 pM
2,"O=C(NS(=O)(=O)c1ccc(N[C@H]2CC[C@H](N3CCOCC3)CC2)c(S(=O)(=O)C(F)(F)F)c1)c1ccc(N2CCN(CC3=C(c4ccc(Cl)cc4)CCOCC3)CC2)cc1Oc1cc2cc[nH]c2cc1Cl [Example 314, Trans-2-[(6-chloro-1H-indol-5-yl)oxy]-4-(4-{[5-(4-chlorophenyl)-2,3,6,7-tetrahydrooxepin-4-yl]methyl}piperazin-1-yl)-N-({4-[(4-morpholin-4-ylcyclohexyl)amino]-3-[(trifluoromethyl)sulfonyl]phenyl}sulfonyl)benzamide]",3090 pM

# Same assay, conditions: GST-Bcl-2 1 nM, F-Bak peptide probe 100 nM, Tb-anti-GST antibody 1 nM; Ki by Wang's equation
row,SMILES,Ki
1,"CC1(C)CCC(CN2CCN(c3ccc(C(=O)NS(=O)(=O)c4ccc(OCC5COCCO5)c([N+](=O)[O-])c4)c(Oc4cc5cc[nH]c5cc4F)c3)CC2)=C(c2ccc(Cl)cc2)C1 (centres unmarked) [Example 285, 4-(4-{[2-(4-chlorophenyl)-4,4-dimethylcyclohex-1-en-1-yl]methyl}piperazin-1-yl)-N-{[4-(1,4-dioxan-2-ylmethoxy)-3-nitrophenyl]sulfonyl}-2-[(6-fluoro-1H-indol-5-yl)oxy]benzamide]",37 pM
2,"CC1(C)CCC(CN2CCN(c3ccc(C(=O)NS(=O)(=O)c4ccc(NCCCN5CCNC(=O)C5)c([N+](=O)[O-])c4)c(Oc4cc5cc[nH]c5cc4F)c3)CC2)=C(c2ccc(Cl)cc2)C1 [Example 233, 4-(4-{[2-(4-chlorophenyl)-4,4-dimethylcyclohex-1-en-1-yl]methyl}piperazin-1-yl)-2-[(6-fluoro-1H-indol-5-yl)oxy]-N-[(3-nitro-4-{[3-(3-oxopiperazin-1-yl)propyl]amino}phenyl)sulfonyl]benzamide]",37 pM
3,"CN1CCC(Nc2ccc(S(=O)(=O)NC(=O)c3ccc(N4CCN(CC5=C(c6ccc(Cl)cc6)CC(C)(C)OC5)CC4)cc3Oc3cccc(Br)c3)cc2[N+](=O)[O-])CC1 [Example 160, 2-(3-bromophenoxy)-4-(4-{[4-(4-chlorophenyl)-6,6-dimethyl-5,6-dihydro-2H-pyran-3-yl]methyl}piperazin-1-yl)-N-({4-[(1-methylpiperidin-4-yl)amino]-3-nitrophenyl}sulfonyl)benzamide]",28 pM
4,"CC1(C)CCC(CN2CCN(c3ccc(C(=O)NS(=O)(=O)c4ccc(OCC5(F)CCN(C6CC6)CC5)c([N+](=O)[O-])c4)c(Oc4cc5cc[nH]c5cc4F)c3)CC2)=C(c2ccc(Cl)cc2)C1 [Example 341, 4-(4-{[2-(4-chlorophenyl)-4,4-dimethylcyclohex-1-en-1-yl]methyl}piperazin-1-yl)-N-({4-[(1-cyclopropyl-4-fluoropiperidin-4-yl)methoxy]-3-nitrophenyl}sulfonyl)-2-[(6-fluoro-1H-indol-5-yl)oxy]benzamide]",17 pM
5,"Cc1cc2cc(Oc3cc(N4CCN(CC5=C(c6ccc(Cl)cc6)CC(C)(C)CC5)CC4)ccc3C(=O)NS(=O)(=O)c3ccc(NC4CCN(C)CC4)c([N+](=O)[O-])c3)ccc2[nH]1 [Example 3, 4-(4-((2-(4-chlorophenyl)-4,4-dimethylcyclohex-1-en-1-yl)methyl)piperazin-1-yl)-2-((2-methyl-1H-indol-5-yl)oxy)-N-((4-((1-methylpiperidin-4-yl)amino)-3-nitrophenyl)sulfonyl)benzamide]",827 pM
6,"CC1(C)CCC(CN2CCN(c3ccc(C(=O)NS(=O)(=O)c4ccc(N[C@@H]5CCN(CC(F)F)C5)c([N+](=O)[O-])c4)c(Oc4cnc(N)c(Cl)c4)c3)CC2)=C(c2ccc(Cl)cc2)C1 [Example 353, 2-[(6-amino-5-chloropyridin-3-yl)oxy]-4-(4-{[2-(4-chlorophenyl)-4,4-dimethylcyclohex-1-en-1-yl]methyl}piperazin-1-yl)-N-[(4-{[(3R)-1-(2,2-difluoroethyl)pyrrolidin-3-yl]amino}-3-nitrophenyl)sulfonyl]benzamide]",16 pM
7,"CC(=O)Nc1ccc(Oc2cc(N3CCN(Cc4ccccc4-c4ccc(Cl)cc4)CC3)ccc2C(=O)NS(=O)(=O)c2ccc(NCC3CCOCC3)c([N+](=O)[O-])c2)cc1 [Example 82, 2-(4-(acetylamino)phenoxy)-4-(4-((4′-chloro-1,1′-biphenyl-2-yl)methyl)piperazin-1-yl)-N-((3-nitro-4-((tetrahydro-2H-pyran-4-ylmethyl)amino)phenyl)sulfonyl)benzamide]",512000 pM
8,"O=C(NS(=O)(=O)c1ccc(NCC2CCOCC2)c([N+](=O)[O-])c1)c1ccc(N2CCN(Cc3ccccc3-c3ccc(Cl)cc3)CC2)cc1Oc1cccc([N+](=O)[O-])c1 [Example 8, 4-(4-((4′-chloro-1,1′-biphenyl-2-yl)methyl)piperazin-1-yl)-2-(3-nitrophenoxy)-N-((3-nitro-4-((tetrahydro-2H-pyran-4-ylmethyl)amino)phenyl)sulfonyl)benzamide]",3450 pM
9,"CN(C)C(=O)COc1ccc(Oc2cc(N3CCN(Cc4ccccc4-c4ccc(Cl)cc4)CC3)ccc2C(=O)NS(=O)(=O)c2ccc(NCC3CCOCC3)c([N+](=O)[O-])c2)cc1 [Example 101, 4-(4-((4′-chloro-1,1′-biphenyl-2-yl)methyl)piperazin-1-yl)-2-(4-(2-(dimethylamino)-2-oxoethoxy)phenoxy)-N-((3-nitro-4-((tetrahydro-2H-pyran-4-ylmethyl)amino)phenyl)sulfonyl)benzamide]",670000 pM
10,"CC1(C)CCC(CN2CCN(c3ccc(C(=O)NS(=O)(=O)c4ccc(NC5CCN(C6CCOCC6)CC5)c([N+](=O)[O-])c4)c(Oc4ccc(N)nc4)c3)CC2)=C(c2ccc(Cl)cc2)C1 [Example 261, 2-[(6-aminopyridin-3-yl)oxy]-4-(4-{[2-(4-chlorophenyl)-4,4-dimethylcyclohex-1-en-1-yl]methyl}piperazin-1-yl)-N-({3-nitro-4-[(1-tetrahydro-2H-pyran-4-ylpiperidin-4-yl)amino]phenyl}sulfonyl)benzamide]",186 pM
11,"CC1(C)CCC(CN2CCN(c3ccc(C(=O)NS(=O)(=O)c4ccc(NC5CCN(C6CCOCC6)CC5)c([N+](=O)[O-])c4)c(Oc4ccccc4Cl)c3)CC2)=C(c2ccc(Cl)cc2)C1 [Example 115, 2-(2-chlorophenoxy)-4-(4-{[2-(4-chlorophenyl)-4,4-dimethylcyclohex-1-en-1-yl]methyl}piperazin-1-yl)-N-({3-nitro-4-[(1-tetrahydro-2H-pyran-4-ylpiperidin-4-yl)amino]phenyl}sulfonyl)benzamide]",42 pM
12,"CC1(C)CC(c2ccc(Cl)cc2)=C(CN2CCN(c3ccc(C(=O)NS(=O)(=O)c4cnc(OCC5CCC(F)(F)CC5)c(Cl)c4)c(Oc4cc5cc[nH]c5cc4F)c3)CC2)CO1 [Example 410, N-({5-chloro-6-[(4,4-difluorocyclohexyl)methoxy]pyridin-3-yl}sulfonyl)-4-(4-{[4-(4-chlorophenyl)-6,6-dimethyl-5,6-dihydro-2H-pyran-3-yl]methyl}piperazin-1-yl)-2-[(6-fluoro-1H-indol-5-yl)oxy]benzamide]",< 10 pM
13,"CN1CCC(Nc2ccc(S(=O)(=O)NC(=O)c3ccc(N4CCN(CC5=C(c6ccc(Cl)cc6)CC(C)(C)CC5)CC4)cc3Oc3cccc(O)c3Cl)cc2[N+](=O)[O-])CC1 [Example 171, 2-(2-chloro-3-hydroxyphenoxy)-4-(4-{[2-(4-chlorophenyl)-4,4-dimethylcyclohex-1-en-1-yl]methyl}piperazin-1-yl)-N-({4-[(1-methylpiperidin-4-yl)amino]-3-nitrophenyl}sulfonyl)benzamide]",66 pM
14,"CN1CCC(Nc2ccc(S(=O)(=O)NC(=O)c3ccc(N4CCN(CC5=C(c6ccc(Cl)cc6)CC(C)(C)CC5)CC4)cc3Oc3cc4cc[nH]c4cc3F)cc2[N+](=O)[O-])CC1 [Example 154, 4-(4-{[2-(4-chlorophenyl)-4,4-dimethylcyclohex-1-en-1-yl]methyl}piperazin-1-yl)-2-[(6-fluoro-1H-indol-5-yl)oxy]-N-({4-[(1-methylpiperidin-4-yl)amino]-3-nitrophenyl}sulfonyl)benzamide]",12 pM
15,"CNc1ncc(Oc2cc(N3CCN(CC4=C(c5ccc(Cl)cc5)CC(C)(C)CC4)CC3)ccc2C(=O)NS(=O)(=O)c2ccc(NCC3CCOCC3)c([N+](=O)[O-])c2)cc1Cl [Example 377, 2-{[5-chloro-6-(methylamino)pyridin-3-yl]oxy}-4-(4-{[2-(4-chlorophenyl)-4,4-dimethylcyclohex-1-en-1-yl]methyl}piperazin-1-yl)-N-({3-nitro-4-[(tetrahydro-2H-pyran-4-ylmethyl)amino]phenyl}sulfonyl)benzamide]",2320 pM
